In the Biogen ADME set (Fang et al. 2023):
≈ marks a conversion by molar mass, not a printed value.

Settings: for aqueous solubility: pH 6.8

Structure (SMILES)	MDR1-MDCK efflux ratio	aqueous solubility [µg/mL]	intrinsic clearance, human liver microsomes [mL/min/kg]	intrinsic clearance, rat liver microsomes [mL/min/kg]	fraction unbound, human plasma	fraction unbound, rat plasma
Cc1nc(O)c(Cl)c(N(C)CC2CCN(C)CC2)n1	7.64		≤ 4.74	≤ 10.7		
Cc1ccc(C(=O)C2CCN(CC(=O)NC(=O)Nc3ccccc3)CC2)c(C)c1	0.559		64.3	936		
Cc1n[nH]c(C)c1CCC(=O)N1CCOCC1	13.5	25.6 (≈ 108 µM)	≤ 4.74	≤ 10.7		
CC(=O)NCC1CCN(C(=O)c2ccc(C)nc2)CC1	130	54 (≈ 196 µM)	≤ 4.74	≤ 10.7		
CNCCN1CCC(OCc2ccccc2)CC1		55 (≈ 222 µM)	46.5	143		
CON(C)C(=O)c1cccc2c(C)c(C)[nH]c12	0.476	31.5 (≈ 136 µM)	113	196		
O=C(CSCCCn1c(=O)[nH]c2ccccc21)N1CCCCC1		59.6 (≈ 179 µM)	68.3	760		
CCOC1CCN(C(=O)Cn2c(=O)[nH]c3ccccc32)CC1	16.9	47.3 (≈ 156 µM)	≤ 4.74	20.2		
O=C(CCNC(=O)c1ccc(OC(F)(F)F)cc1)N[C@@H]1CCCc2ccccc21	3.14	4.6 (≈ 11.3 µM)	154	797	0.0336	0.0427
Cc1cc(C)nc(-n2nc(C)c(CC(=O)NC3CCCCCC3)c2C)n1	33.3	54.6 (≈ 154 µM)	43.9	832		
COCCNC(=O)c1nnc2n(c1=O)CCN2c1ccccc1	9.52		≤ 4.74	≤ 10.7		
COC(=O)C1=NOC2(CCN(CCCCCF)CC2)C1	0.463		199	713		
CCOCC(=O)N1CCC2(CCc3ccccc3O2)CC1	0.732	34.1 (≈ 118 µM)	10.3	818		
CCN(CC)C(=O)c1ccc(NC(C)=O)cc1	1.95	34.6 (≈ 148 µM)	≤ 4.74	25.6		
O=C(CSC1CCCC1)N1CCC(n2ccnn2)CC1	1.3	39.1 (≈ 133 µM)	13.2	138		
CC(=O)NC1(C(=O)N2CCCN(C3CC3)CC2)CCC(C)CC1 (stereo unspecified)	37.7	53.8 (≈ 167 µM)	27.7	80.8		
CCOC(=O)c1c(C)[nH]c(CN(Cc2ccccc2)C(=O)c2ccccc2Cl)c1C	2.14	5.15 (≈ 12.1 µM)	311	1490		
O=C(NCc1ccccc1)c1ccc(NS(=O)(=O)c2ccc(C3CCCCC3)cc2)cc1	2.69	1.57 (≈ 3.5 µM)	81	402		
CN1CCN(c2cccc(C#N)n2)CC1			≤ 4.74	617		
COc1ccc(C(C)(C)C)cc1NC(=O)C1(C#N)CCCC1	0.478	0.3 (≈ 0.999 µM)				
COCC(=O)Nc1nc(C)c(C)s1	0.659	25.6 (≈ 128 µM)	18.9	71.3		
CN(C)[C@@H]1CN(C(=O)COc2ccccc2)C[C@H]1O		83.3 (≈ 315 µM)	≤ 4.74	17.6		
CCC(=O)N(C)c1ccccc1C(=O)O	1.28	36.4 (≈ 176 µM)	23.7	1130		

The next lines start with the values.

MDR1-MDCK efflux ratio	aqueous solubility [µg/mL]	intrinsic clearance, human liver microsomes [mL/min/kg]	intrinsic clearance, rat liver microsomes [mL/min/kg]	fraction unbound, human plasma	fraction unbound, rat plasma	Structure (SMILES)
0.658	0.68 (≈ 1.89 µM)					Cn1cc(-c2ccnc(/C=C/c3ccc(F)cc3Br)n2)cn1
6.9		101	1210	0.0729	0.0603	Nc1ncnc2c1c(-c1cnc3[nH]ccc3c1)nn2C1CCCC1
39.4		9.73	36.3			CCS(=O)(=O)N1CCN(c2ccc(Nc3ncc(C(N)=O)c(NC4CC4)n3)cc2)CC1
7.7		392	2500			CCCc1cc(CNS(=O)(=O)c2cc(-c3cnc(C)o3)ccc2C)on1
0.67	13.3 (≈ 45 µM)	51.8	53.1			CCc1ccccc1NC(=O)c1cc(C)nc2onc(C)c12
		26.1	49.2			COc1cc(-c2cn(C3CCc4c(F)cccc4N(CC(F)(F)F)C3=O)nn2)ccc1-n1cnc(C)c1 (stereo unspecified)
0.706		≤ 4.74	23.6			Cc1noc(COc2cccnc2C)n1
0.795		≤ 4.74	194			Cc1ccccc1S(=O)(=O)Nc1c(C)ccnc1Cl
53.3	2.2 (≈ 5.74 µM)	≤ 4.74	≤ 10.7	0.363	0.231	Cn1cc(-c2cn3nccc3c(-c3cnn([C@]4(CC#N)C[C@@H](C#N)C4)c3)n2)cn1
1.6	2.35 (≈ 5.88 µM)	72.8	571			O=C(c1ccc2[nH]ccc2c1)N1CCCC(c2cccc(-c3ccc(F)cc3)n2)C1 (stereo unspecified)
0.671		17.8	281			COc1cccc(Cc2cnc(N)s2)c1
0.556	30.6 (≈ 120 µM)	16.8	626			Cc1ccc(NC(=O)C(C)(C)c2ccccc2)nc1
		7.88	567			O=C(NCC1(Sc2ccccc2)CC1)c1ccc(=O)[nH]n1
1.55	31.5 (≈ 140 µM)	≤ 4.74	47.9			O=c1[nH]c2cnccc2n1Cc1ccccc1
1.39		23.5	296			COc1ccc2nc(C)nc(NCc3ncc(C)o3)c2c1
3.48						C[C@@H](NC(=O)c1cc(Br)c2c(c1)OCCO2)c1cn(-c2ccccc2)nn1
0.596	36.5 (≈ 153 µM)	≤ 4.74	20.7			N#Cc1ccc(CN2CC(n3cccn3)C2)cc1

MDR1-MDCK efflux ratio	aqueous solubility [µg/mL]	intrinsic clearance, human liver microsomes [mL/min/kg]	intrinsic clearance, rat liver microsomes [mL/min/kg]	fraction unbound, human plasma	fraction unbound, rat plasma	Structure (SMILES)
86.7	55.7 (≈ 141 µM)	182	142			CC(C)c1ccc(-c2cc3c(=O)n(CCC(=O)NCCN(C)C)ccn3n2)cc1
8.42	62.2 (≈ 177 µM)	6	27.7	0.604	0.893	Cc1cc(F)ccc1C1C(=O)NCCN1C(=O)c1ccc2nccn2c1 (stereo unspecified)
2.81	40.8 (≈ 144 µM)	≤ 4.74	27.3		0.412	O=C(Nc1cccnc1)c1ccnc(NC(=O)C2CC2)c1
0.727	4.5 (≈ 11.2 µM)	1000	4270			O=C(CCc1ccccc1)N1CCC(c2cccc(Cc3ccc(F)cc3)n2)CC1
2.68		≤ 4.74	340			CCn1cnnc1CN(C)C1CCN(c2ccccc2F)CC1
0.719	90.9 (≈ 372 µM)	≤ 4.74	≤ 10.7			Cc1cc(C(=O)N(C)C2CCC2)n2nccc2n1
0.471		37.1	565			O=c1c2ccccc2nc2n1CCN(Cc1ccc(F)cc1)CC2
1.32	0.88 (≈ 2.14 µM)					CCOC(=O)C1CCN(C(=O)c2cc3occc3c(Nc3ccc(F)cc3)n2)CC1
0.978	37.6 (≈ 152 µM)	5.86	14.5			CNC(=O)Cc1nc(-c2cncc(C)c2)cs1
0.247	4.9 (≈ 18.4 µM)	84.8	491	0.032	0.0373	COc1ccccc1C(=O)Nc1ccc2cc[nH]c2c1
9.4		123	1680			N#Cc1cc(CN2CCC(Nc3ncnc4sc(Cl)cc34)CC2)ccc1F
	44.1 (≈ 220 µM)	24.9	600			Oc1ccccc1NCc1ccccn1
	36.4 (≈ 88 µM)					Cc1cc2c(C(N)=O)cccc2n1-c1nc2c(c(NCc3ccccc3)n1)COCC2
1.5		4.85	870			O=C(c1n[nH]c2c1COCC2)N1CCC2(C=Cc3ccccc32)CC1
1.26	0.27 (≈ 0.708 µM)					COc1ccccc1NC(=O)CSc1nc(C(C)(C)C)nc2ccccc12
15.4	29.1 (≈ 88.5 µM)	184	875			O=C(Cc1ccc2ccccc2c1)NCCc1nc2ccccc2[nH]1
